Source: patent publication US6156790A, “C-10 carbon-substituted artemisinin-like trioxane compounds having antimalarial, antiproliferative and antitumor activities” (priority 1997, dated 2000)
“Also recorded” adds a separate entry of the source. Read-outs that look alike come from different tables or passages of the source.

Columns and labels:
[1] = system: SR; experiment: cells; format: cell-based; details: Homo sapiens
[2] = system: 60 cell line panel; experiment: NCI 60 cell line screen, whole panel; format: cell-based
[3] = system: NCI-H23; experiment: NCI 60 cell line screen (SRB), non-small cell lung cancer; format: cell-based; details: Homo sapiens
[4] = system: MCF7; experiment: cells; format: cell-based; details: Homo sapiens, MCF7; read-out: Log10 GI50 (converted)
[5] = system: M14; experiment: NCI 60 cell line screen (SRB), melanoma; details: Homo sapiens, M14, read-out: Log10 GI50 (converted)
[6] = system: BT-549; experiment: cells; format: cell-based; details: Homo sapiens
[7] = system: SNB-19; experiment: cells; format: cell-based; details: Homo sapiens, read-out: Log10 GI50 (converted)
[8] = system: HCT-15; experiment: cells; format: cell-based; details: Homo sapiens, HCT-15
[9] = system: PC-3; experiment: cells; format: cell-based; details: Homo sapiens, PC-3
[10] = system: UO-31; experiment: NCI 60 cell line screen (SRB), renal cancer; format: cell-based; details: Homo sapiens
[11] = system: U251; experiment: cells; format: cell-based; details: Homo sapiens
[12] = system: NCI-H460; experiment: cells; format: cell-based; details: Homo sapiens, NCI-H460
[13] = system: HOP-92; experiment: NCI 60 cell line screen (SRB), non-small cell lung cancer; format: cell-based; details: Homo sapiens, read-out: Log10 GI50 (converted)
[14] = system: SK-MEL-2; experiment: cells; format: cell-based; details: Homo sapiens
[15] = system: ACHN; experiment: cells; details: Homo sapiens
[16] = system: NCI-H226; experiment: NCI 60 cell line screen (SRB), non-small cell lung cancer; format: cell-based; details: Homo sapiens, read-out: Log10 GI50 (converted)
[17] = system: A549/ATCC; experiment: as above; format: cell-based; details: Homo sapiens
[18] = system: OVCAR-8; experiment: NCI 60 cell line screen (SRB), ovarian cancer; format: cell-based; details: Homo sapiens
[19] = system: OVCAR-3; experiment: NCI 60 cell line screen (SRB), ovarian cancer; format: cell-based; details: Homo sapiens, read-out: Log10 GI50 (converted)
[20] = system: IGROVI; experiment: cells; details: 60 cell
[21] = system: MDA-N; experiment: cells; format: cell-based; details: Homo sapiens, read-out: Log10 GI50 (converted)
[22] = system: SW-620; experiment: NCI 60 cell line screen (SRB), colon cancer; format: cell-based; details: Homo sapiens
[23] = system: MOLT-4; experiment: cells; details: Homo sapiens
Procedure: The screening assay is performed on a 96-well microtitre plates.
Dose response curves, shown in the above mentioned Figures, are obtained by exposing various cancer cell lines to compounds having a known concentration ([log10 M]), as discussed in detail above, and then plotting the percentage growth of each cell line for each concentration. […] As discussed previously, the five drug dilutions routinely tested range from 10^-4 to 10^-9 molar.

[24] = system: TK-10; experiment: cells; format: cell-based; details: Homo sapiens
[25] = system: HOP-62; experiment: cells; format: cell-based; details: Homo sapiens, read-out: Log10 GI50 (converted)
[26] = system: T-47D; experiment: cells; format: cell-based; details: Homo sapiens, T47D, T-47D
[27] = system: RXF 393; experiment: cells; details: Homo sapiens, RXF 393, read-out: Log10 GI50 (converted)
[28] = system: MDA-MB231/ATCC; experiment: cells; format: cell-based; details: Homo sapiens, MDA-MB-231, read-out: Log10 TGI (converted)
[29] = system: EKVX; experiment: NCI 60 cell line screen (SRB), non-small cell lung cancer; format: cell-based; details: Homo sapiens
[30] = system: HCT-116; experiment: cells; format: cell-based; details: Homo sapiens
[31] = system: A498; experiment: cells; format: cell-based; details: Homo sapiens, read-out: Log10 GI50 (converted)
[32] = system: SNB-75; experiment: cells; format: cell-based; details: Homo sapiens, read-out: Log10 GI50 (converted)
[33] = system: KM12; experiment: cells; format: cell-based; details: Homo sapiens, read-out: Log10 TGI (converted)
[34] = system: HT29; experiment: cells; format: cell-based; details: Homo sapiens, HT-29, read-out: Log10 GI50 (converted)
[35] = read-out: Log10 GI50 (converted)
[36] = read-out: Log10 TGI (converted)
[37] = read-out: Log10 LC50 (converted)

Question: `C[C@H]1[C@@H](F)O[C@@H]2O[C@@]3(C)CC[C@H]4[C@H](C)CC[C@@H]1[C@@]24OO3` [Compound VI, 10β-Fluorodeoxoartemisinin] was tested. Which GI50 [1, 35] did it give?
Answer: The GI50 was 0.427 µM.

Question: And the IC (TGI) [1, 36]?
Answer: The IC (TGI) was 13.8 µM.

Question: And the IC (TGI) ([2]; 60 cell, mean over panel, read-out: Log10 TGI MG MID (converted))?
Answer: The IC (TGI) was 41.7 µM.

Question: What about the CC50 ([2]; Homo sapiens, 60 cell, mean over panel, read-out: Log10 LC50 MG MID (converted)) of the same molecule?
Answer: The CC50 was 93.3 µM.

Question: And the “potency compared with artemisinin” value ([2]; Tables III, IV and V)?
Answer: Its value is “more potent than artemisinin”.

Question: What about the “potency compared with paclitaxel” value ([2]; Tables III, IV and V) of the same molecule?
Answer: Its value is “in most instances are as potent and in some instances more potent than paclitaxel; also recorded: equivalent to and in many instances higher in potency than paclitaxel”.

Question: And the GI50 [3, 35]?
Answer: Its GI50 is 0.631 µM.

Question: And the IC (TGI) [3, 36]?
Answer: Its IC (TGI) is 25.1 µM.

Question: And the GI50 [4]?
Answer: The GI50 was 0.525 µM.

Question: What about the GI50 [5] of the same molecule?
Answer: The GI50 was 17.4 µM.

Question: What about the GI50 [6, 35] of the same molecule?
Answer: Its GI50 is 0.759 µM.

Question: What about the IC (TGI) [6, 36] of the same molecule?
Answer: Its IC (TGI) is 30.9 µM.

Question: What about the GI50 [7] of the same molecule?
Answer: The GI50 was 871 µM.

Question: And the GI50 [8, 35]?
Answer: The GI50 was 0.339 µM.

Question: What about the IC (TGI) [8, 36] of the same molecule?
Answer: The IC (TGI) was 51.3 µM.

Question: What about the GI50 [9, 35] of the same molecule?
Answer: The GI50 was 0.251 µM.

Question: What about the IC (TGI) [9, 36] of the same molecule?
Answer: The IC (TGI) was 46.8 µM.

Question: What about the GI50 [10, 35] of the same molecule?
Answer: Its GI50 is 1.1 µM.

Question: What about the CC50 [10, 37] of the same molecule?
Answer: Its CC50 is 25.1 µM.

Question: What about the IC (TGI) [10, 36] of the same molecule?
Answer: Its IC (TGI) is 5.01 µM.

Question: What about the GI50 ([11]; U-251, read-out: Log10 GI50 (converted)) of the same molecule?
Answer: The GI50 was 0.447 µM.

Question: And the CC50 ([11]; U-251, read-out: Log10 LC50 (converted))?
Answer: The CC50 was 42.7 µM.

Question: And the IC (TGI) ([11]; U-251, read-out: Log10 TGI (converted))?
Answer: The IC (TGI) was 16.2 µM.

Question: And the GI50 [12, 35]?
Answer: The GI50 was 0.813 µM.

Question: What about the CC50 [12, 37] of the same molecule?
Answer: The CC50 was 55 µM.

Question: What about the IC (TGI) [12, 36] of the same molecule?
Answer: The IC (TGI) was 19.1 µM.

Question: And the GI50 [13]?
Answer: The GI50 was 2.95 µM.

Question: And the GI50 [14, 35]?
Answer: Its GI50 is 7.59 µM.

Question: And the IC (TGI) [14, 36]?
Answer: The IC (TGI) was 77.6 µM.

Question: And the GI50 [15, 35]?
Answer: The GI50 was 1.02 µM.

Question: And the CC50 [15, 37]?
Answer: The CC50 was 38.9 µM.

Question: And the IC (TGI) ([15]; read-out: Log10 TGI)?
Answer: The IC (TGI) was 12.6 µM.

Question: And the GI50 [16]?
Answer: Its GI50 is 5.75 µM.

Question: And the GI50 [17, 35]?
Answer: Its GI50 is 6.03 µM.

Question: And the IC (TGI) [17, 36]?
Answer: The IC (TGI) was 30.9 µM.

Question: What about the GI50 [18, 35] of the same molecule?
Answer: The GI50 was 2.04 µM.

Question: What about the IC (TGI) [18, 36] of the same molecule?
Answer: The IC (TGI) was 51.3 µM.

Question: What about the GI50 [19] of the same molecule?
Answer: Its GI50 is 2.88 µM.

Question: And the GI50 [20, 35]?
Answer: Its GI50 is 1.23 µM.

Question: And the IC (TGI) ([20]; read-out: Log10 TGI)?
Answer: The IC (TGI) was 18.2 µM.

Question: What about the GI50 [21] of the same molecule?
Answer: Its GI50 is 1.15 µM.

Question: What about the GI50 [22, 35] of the same molecule?
Answer: Its GI50 is 0.398 µM.

Question: What about the CC50 [22, 37] of the same molecule?
Answer: The CC50 was 63.1 µM.

Question: And the IC (TGI) [22, 36]?
Answer: The IC (TGI) was 15.5 µM.

Question: What about the GI50 ([23]; MOLT-4, read-out: Log10 GI50 (converted)) of the same molecule?
Answer: The GI50 was 0.427 µM.

Question: And the IC (TGI) ([23]; MOLT-4, read-out: Log10 TGI)?
Answer: Its IC (TGI) is 36.3 µM.

Question: What about the GI50 ([23]; MOLT-4, read-out: concentration for primary growth inhibition) of the same molecule?
Answer: The GI50 was about 0.1 µM.

Question: What about the GI50 [24, 35] of the same molecule?
Answer: Its GI50 is 11 µM.

Question: What about the IC (TGI) [24, 36] of the same molecule?
Answer: Its IC (TGI) is 37.2 µM.

Question: And the GI50 [25]?
Answer: Its GI50 is 12.9 µM.

Question: And the GI50 [26, 35]?
Answer: The GI50 was 0.302 µM.

Question: And the IC (TGI) [26, 36]?
Answer: The IC (TGI) was 47.9 µM.

Question: And the GI50 [27]?
Answer: The GI50 was 14.8 µM.

Question: What about the IC (TGI) [28] of the same molecule?
Answer: Its IC (TGI) is 56.2 µM.

Question: And the GI50 [29, 35]?
Answer: Its GI50 is 2.95 µM.

Question: And the IC (TGI) [29, 36]?
Answer: The IC (TGI) was 89.1 µM.

Question: And the GI50 [30, 35]?
Answer: Its GI50 is 0.195 µM.

Question: And the CC50 [30, 37]?
Answer: Its CC50 is 42.7 µM.

Question: What about the GI50 [31] of the same molecule?
Answer: The GI50 was 28.2 µM.

Question: What about the GI50 [32] of the same molecule?
Answer: The GI50 was 14.5 µM.

Question: And the IC (TGI) [33]?
Answer: Its IC (TGI) is 26.9 µM.

Question: And the GI50 [34]?
Answer: Its GI50 is 0.407 µM.
